In patent publication US11091478B2 (Fochon Pharmaceuticals, Ltd., priority 2017, dated 2021) one finds IC50 data, which are given here for 15 compounds.

The test system of one assay is DOHH2 cells. As to the kind of experiment: Cell proliferation assay (MTS), DOHH2 cells, 120 h. The class given is cell-based. The settings on record: Homo sapiens, DOHH-2, 120 h. The gist of the method:
(§1)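 Proliferation was scored by MTS (2 h, then SDS stop, A490 with 650 nm reference) and IC50 derived. Compound ran at nine final concentrations from 1.5 to 10000 nM. DOHH2 were incubated 120 h and RS4;11 72 h, both plated at 5000 cells/well in RPMI-1640 plus 10% FBS.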

A further assay deals with RS4;11 cells. As to the kind of experiment: Cell proliferation assay (MTS), RS4;11 cells, 72 h. Format: cell-based. The settings on record: Homo sapiens, RS4-11, 72 h. The gist of the method: as §1

As for `C[C@@H]1CNc2c(cc(S(=O)(=O)NC(=O)c3ccc(N4CCN(CC5=C(c6ccc(Cl)cc6)CC(C)(C)CC5)CC4)cc3Oc3cnc4[nH]ccc4c3)cc2[N+](=O)[O-])O1` [Example 2-100, (R)-2-((1H-pyrrolo[2,3-b]pyridin-5-yl)oxy)-4-(4-((4′-chloro-5,5-dimethyl-3,4,5,6-tetra-hydro[1,1′-biphenyl]-2-yl)methyl)piperazin-1-yl)-N-((2-methyl-5-nitro-3,4-dihydro-2H-benzo[b][1,4]oxazin-7-yl)sulfonyl)benza-mide], the IC50 in the assay on DOHH2 cells worked out at 31 nM; in the assay with RS4;11 cells it was 22 nM.
With `CC1(C)CCC(CN2CCN(c3ccc(C(=O)NS(=O)(=O)c4cc5c(c([N+](=O)[O-])c4)N[C@@H](COC4CC4)CO5)c(Oc4cnc5[nH]ccc5c4)c3)CC2)=C(c2ccc(Cl)cc2)C1` [Example 2-241, (S)-2-((1H-pyrrolo[2,3-b]pyridin-5-yl)oxy)-4-(4-((4′-chloro-5,5-dimethyl-3,4,5,6-tetra-hydro-[1,1′-biphenyl]-2-yl)methyl)piperazin-1-yl)-N-((3-(cyclopropoxymethyl)-5-nitro-3,4-dihydro-2H-benzo[b][1,4]oxazin-7-yl)sulfonyl)benzamide], the IC50 stood at 11 nM in the assay with DOHH2 cells and 4 nM with RS4;11 cells.
Turning to `CC1(C)CCC(CN2CCN(c3ccc(C(=O)NS(=O)(=O)c4cc5c(c([N+](=O)[O-])c4)N[C@@H](CCN4CC(C)(O)C4)CO5)c(Oc4cnc5[nH]ccc5c4)c3)CC2)=C(c2ccc(Cl)cc2)C1` [Example 2-45, (S)-2-((1H-pyrrolo[2,3-b]pyridin-5-yl)oxy)-4-(4-((4′-chloro-5,5-dimethyl-3,4,5,6-tetra-hydro-[1,1′-biphenyl]-2-yl)methyl)piperazin-1-yl)-N-((3-(2-(3-hydroxy-3-methylazeti-din-1-yl)ethyl)-5-nitro-3,4-dihydro-2H-ben-zo[b][1,4]oxazin-7-yl)sulfonyl)benzamide], the IC50 in the assay with DOHH2 cells worked out at 17 nM; in the assay with RS4;11 cells, 12 nM.
Taken in the same sequence, the figures for `CC1(C)CCC(CN2CCN(c3ccc(C(=O)NS(=O)(=O)c4cc5c(c([N+](=O)[O-])c4)N[C@H](C4CCN(C(=O)OC(C)(C)C)CC4)CO5)c(Oc4cnc5[nH]ccc5c4)c3)CC2)=C(c2ccc(Cl)cc2)C1` [Example 2-222, tert-btuyl (R)-4-(7-(N-(2-((1H-pyrrolo[2,3-b]pyridin-5-yl)oxy)-4-(4-((4′-chloro-5,5-dimethyl-3,4,5,6-tetrahydro-[1,1′-biphenyl]-2-yl)methyl)piperazin-1-yl)benzoyl)sulfamoyl)-5-nitro-3,4-dihydro-2H-benzo[b][1,4]oxazin-3-yl) piperidine-1-carboxylate] were 3 nM and 25 nM.
The like results for `CC1(C)CCC(CN2CCN(c3ccc(C(=O)NS(=O)(=O)c4cc5c(c([N+](=O)[O-])c4)N[C@@H](CC(=O)N4CCOCC4)CO5)c(Oc4cnc5[nH]ccc5c4)c3)CC2)=C(c2ccc(Cl)cc2)C1` [Example 2-142, (S)-2-((1H-pyrrolo[2,3-b]pyridin-5-yl)oxy)-4-(4-((4′-chloro-5,5-dimethyl-3,4,5,6-tetra-hydro-[1,1′-biphenyl]-2-yl)methyl)piperazin-1-yl)-N-((3-(2-morpholino-2-oxoethyl)-5-nitro-3,4-dihydro-2H-benzo[b][1,4]oxazin-7-yl)sulfonyl)benzamide] were, in that order, 28 nM and 3 nM.
`COC1CCC(C[C@H]2COc3cc(S(=O)(=O)NC(=O)c4ccc(N5CCN(CC6=C(c7ccc(Cl)cc7)CC(C)(C)CC6)CC5)cc4Oc4cnc5[nH]ccc5c4)cc([N+](=O)[O-])c3N2)CC1` (stereo partly drawn) [Example 2-246B, (S)-2-((1H-pyrrolo[2,3-b]pyridin-5-yl)oxy)-4-(4-((4′-chloro-5,5-dimethyl-3,4,5,6-tetra-hydro-[1,1′-biphenyl]-2-yl)methyl)piperazin-1-yl)-N-((3-((4-methoxycyclohexyl)meth-yl)-5-nitro-3,4-dihydro-2H-benzo[b][1,4]oxa-zin-7-yl)sulfonyl)benzamide]: the IC50 in the assay with DOHH2 cells turned out to be 13 nM; in the assay with RS4;11 cells it was 29 nM.
On to `CC1(C)CCC(CN2CCN(c3ccc(C(=O)NS(=O)(=O)c4cc5c(c([N+](=O)[O-])c4)N[C@H](CCN4CC(C)(O)C4)CO5)c(Oc4cnc5[nH]ccc5c4)c3)CC2)=C(c2ccc(Cl)cc2)C1` [Example 2-35, (R)-2-((1H-pyrrolo[2,3-b]pyridin-5-yl)oxy)-4-(4-((4′-chloro-5,5-dimethyl-3,4,5,6-tetra-hydro-[1,1′-biphenyl]-2-yl)methyl)piperazin-1-yl)-N-((3-(2-(3-hydroxy-3-methylazetidin-1-yl)ethyl)-5-nitro-3,4-dihydro-2H-ben-zo[b][1,4]oxazin-7-yl)sulfonyl)benzamide], for which the values for the half-maximal inhibitory concentration (IC50) in the assay with DOHH2 cells and in the assay with RS4;11 cells were 30 nM and 5 nM, respectively.
As to `C[C@H]1CN(C[C@H]2COc3cc(S(=O)(=O)NC(=O)c4ccc(N5CCN(CC6=C(c7ccc(Cl)cc7)CC(C)(C)CC6)CC5)cc4Oc4cnc5[nH]ccc5c4)cc([N+](=O)[O-])c3N2)CCN1C` [Example 2-27, 2-((1H-pyrrolo[2,3-b]pyridin-5-yl)oxy)-4-(4-((4′-chloro-5,5-dimethyl-3,4,5,6-tetra-hydro-[1,1′-biphenyl]-2-yl)methyl)piperazin-1-yl)-N-(((S)-3-(((S)-3,4-dimethylpiperazin-1-yl)methyl)-5-nitro-3,4-dihydro-2H-benzo [b][1,4]oxazin-7-yl)sulfonyl)benzamide], the IC50 with DOHH2 cells came to 12 nM; with RS4;11 cells, 1 nM.
Taken in the same sequence, the figures for `CN1CCC(C[C@H]2COc3cc(S(=O)(=O)NC(=O)c4ccc(N5CCN(CC6=C(c7ccc(Cl)cc7)CC(C)(C)CC6)CC5)cc4Oc4cnc5[nH]ccc5c4)cc([N+](=O)[O-])c3N2)CC1` [Example 2-193, (S)-2-((1H-pyrrolo[2,3-b]pyridin-5-yl)oxy)-4-(4-((4′-chloro-5,5-dimethyl-3,4,5,6-tetra-hydro-[1,1′-biphenyl]-2-yl)methyl)piperazin-1-yl)-N-((3-((1-methylpiperidin-4-yl)meth-yl)-5-nitro-3,4-dihydro-2H-benzo[b][1,4]oxazin-7-yl)sulfonyl)benzamide] were 28 nM and 1 nM.
Taken in the same sequence, the figures for `CC1(C)CCC(CN2CCN(c3ccc(C(=O)NS(=O)(=O)c4cc5c(c([N+](=O)[O-])c4)N[C@H](CNS(=O)(=O)C4CCOCC4)CO5)c(Oc4cnc5[nH]ccc5c4)c3)CC2)=C(c2ccc(Cl)cc2)C1` [Example 2-139, (R)-2-((1H-pyrolo[2,3-b]pyridin-5-yl)oxy)-4-(4-((4′-chloro-5,5-dimethyl-3,4,5,6-tetra-hydro-[1,1′-biphenyl]-2-yl)methyl)piperazin-1-yl)-N-((5-nitro-3-(((tetrahydro-2H-pyran)-4-sulfonamido)methyl)-3,4-dihdyro-2H-benzo[b][1,4]oxazin-7-yl)sulfonyl)benzamide] were 338 nM and 88 nM.
The like results for `CC1(C)CCC(CN2CCN(c3ccc(C(=O)NS(=O)(=O)c4cc5c(c([N+](=O)[O-])c4)N[C@@H](Cc4cccnc4)CO5)c(Oc4cnc5[nH]ccc5c4)c3)CC2)=C(c2ccc(Cl)cc2)C1` [Example 2-163, (S)-2-((1H-pyrrolo[2,3-b]pyridin-5-yl)oxy)-4-(4-((4′-chloro-5,5-dimethyl-3,4,5,6-tetra-hydro-[1,1′-biphenyl]-2-yl)methyl)piperazin-1-yl)-N-((5-nitro-3-(pyridin-3-ylmethyl)-3,4-dihydro-2H-benzo[b][1,4]oxazin-7-yl)sulfonyl)benzamide] were, in that order, 53 nM and 29 nM.
Regarding `CC1(C)CCC(CN2CCN(c3ccc(C(=O)NS(=O)(=O)c4cc5c(c([N+](=O)[O-])c4)N[C@H](CN4CCC(C)(O)CC4)CO5)c(Oc4cnc5[nH]ccc5c4)c3)CC2)=C(c2ccc(Cl)cc2)C1` [Example 2-6, (R)-2-((1H-pyrrolo[2,3-b]pyridin-5-yl)oxy)-4-(4-((4′-chloro-5,5-dimethyl-3,4,5,6-tetra-hydro-[1,1′-biphenyl]-2-yl)methyl)piperazin-1-yl)-N-((3-((4-hydroxy-4-methylpiperdin-1-yl)methyl)-5-nitro-3,4-dihydro-2H-benzo[b][1,4]oxazin-7-yl)sulfonyl)benzamide], the IC50 with DOHH2 cells came to 18 nM; with RS4;11 cells, 2 nM.
Taken in the same sequence, the figures for `CN1CCN(C[C@H]2Cc3cc(S(=O)(=O)NC(=O)c4ccc(N5CCN(CC6=C(c7ccc(Cl)cc7)CC(C)(C)CC6)CC5)cc4Oc4cnc5[nH]ccc5c4)cc([N+](=O)[O-])c3N2)CC1` [Example 1-7, (R)-2-((1H-pyrrolo[2,3-b]pyridin-5-yl)oxy)-4-(4-((4′-chloro-5,5-dimethyl-3,4,5,6-tetra-hydro-[1,1′-biphenyl]-2-yl)methyl)piperazin-1-yl)-N-((2-((4-methylpiperazin-1-yl)meth-yl)-7-nitroindolin-5-yl)sulfonyl)benzamide] were 26 nM and 3 nM.
Taken in the same sequence, the figures for `CN1CCN(C[C@@H]2CSc3cc(S(=O)(=O)NC(=O)c4ccc(N5CCN(CC6=C(c7ccc(Cl)cc7)CC(C)(C)CC6)CC5)cc4Oc4cnc5[nH]ccc5c4)cc([N+](=O)[O-])c3N2)CC1` [Example 3-1, (R)-2-((1H-pyrrolo[2,3-b]pyridin-5-yl)oxy)-4-(4-((4′-chloro-5,5-dimethyl-3,4,5,6-tetrahydro-[1,1′-biphenyl]-2-yl)methyl)piperazin-1-yl)-N-((3-((4-methylpiperazin-1-yl)methyl)-5-nitro-3,4-dihydro-2H-benzo[b][1,4]thiazin-7-yl)sulfonyl)benzamide] were 3 nM and 1 nM.
For `CC[C@@H]1COc2cc(S(=O)(=O)NC(=O)c3ccc(N4CCN(CC5=C(c6ccc(Cl)cc6)CC(C)(C)CC5)CC4)cc3Oc3cnc4[nH]ccc4c3)cc([N+](=O)[O-])c2N1` [Example 2-107], the IC50 with DOHH2 cells was determined as 22 nM; with RS4;11 cells, 8 nM.

One may read the IC50 as the concentration at which inhibition is half-maximal.
